# Target: T1, eIF2B decamer, eIF2B(αβδγε)2 (ISRIB pocket at the eIF2Bβ/eIF2Bδ interface) (Homo sapiens, UniProt P49770+Q9UI10)
# T1 construct: gene EIF2B2; full eIF2B(αβδγε)2 decamer assembled from purified eIF2Bβγδε and eIF2Bα2; with eIF2Bβ (EIF2B2), with eIF2Bα, eIF2Bγ, eIF2Bε
# Assay: fluorescence polarization competition with FAM-ISRIB; also FRET assembly of tetramers (EC50 […]), re-refined cryo-EM model
# Format: binding
smiles,measurement,value
O=C(COc1ccc(Cl)cc1)N[C@H]1CC[C@H](NC(=O)COc2ccc(Cl)cc2)CC1 [ISRIB],IC50,37 nM

# Source: PMC7990499, “eIF2B conformation and assembly state regulate the integrated stress response” (eLife, 2021)
